Our source for the Activity and IC50 values is ChEMBL document CHEMBL3352422, “Imidazo[2,1-b]thiazole derivatives as new inhibitors of 15-lipoxygenase” (Eur J Med Chem, 2014).

Each structure is given as a SMILES string. Activity calls are given as the source filed them. The calls are words filed in the database; no cut-off is given here.

Tested on in the first series: not listed separately
Nature of the series: Toxicity in rat PC12 cells at 1 to 10 uM after 24 hrs by MTT assay. Format: cell-based. The conditions noted are these: pc-12, 24 h.
Turning to `COc1ccc(-c2csc3nc(-c4ccccc4)c(NC(C)(C)CC(C)(C)C)n23)cc1`, the Activity entry is “Non-toxic”.

Tested on in a further series: not listed separately
Nature of the series: Inhibition of soybean 15-LOX incubated for 4 mins before linoleic acid substrate addition by spectrophotometry.
Details: not given
Set-up: species or system Glycine max.
Turning to `Brc1ccccc1-c1nc2scc(-c3ccccc3)n2c1NC1CCCCC1`, the IC50 entry is listed as “Not Active”.

The same series, now with this note: read-out: IC50.
On to `CC(C)(C)Nc1c(-c2ccc(Cl)cc2)nc2scc(-c3ccccc3)n12`, for which the IC50 was found to be 33 µM.
Same read-out and setting: as for `O=[N+]([O-])c1ccc(-c2nc3scc(-c4ccccc4)n3c2NC2CCCCC2)cc1`, the figure is 737 µM; as for `CC(C)(C)CC(C)(C)Nc1c(-c2ccccc2[N+](=O)[O-])nc2scc(-c3ccccc3)n12`, 70 µM; as for `CC(C)(C)Nc1c(-c2ccc([N+](=O)[O-])cc2)nc2scc(-c3ccccc3)n12`, 45 µM.
Regarding `CC(C)(C)CC(C)(C)Nc1c(-c2ccc(Cl)cc2)nc2scc(-c3ccc(Br)cc3)n12`, the IC50 was 20.7 µM.
As to `Cc1ccc(-c2nc3scc(-c4ccccc4)n3c2NC(C)(C)C)cc1`, the IC50 is 35 µM.
As for `O=c1c(O)c(-c2ccc(O)c(O)c2)oc2cc(O)cc(O)c12` [QUERCETIN], the IC50 turned out to be 23 µM.
For `COc1ccc(-c2csc3nc(-c4ccccc4)c(NC(C)(C)CC(C)(C)C)n23)cc1`, the IC50 was 11.5 µM.
On the same count and under the same terms, as for `COc1ccc(-c2nc3scc(-c4ccccc4)n3c2NC2CCCCC2)cc1`, the figure is 765 µM; as for `O=[N+]([O-])c1ccccc1-c1nc2scc(-c3ccc(Br)cc3)n2c1NC1CCCCC1`, 170 µM; as for `CC(C)(C)CC(C)(C)Nc1c(-c2ccc([N+](=O)[O-])cc2)nc2scc(-c3ccc(Br)cc3)n12`, 32 µM.
On the same count and under the same terms, as for `Clc1ccc(-c2nc3scc(-c4ccc(Br)cc4)n3c2NC2CCCCC2)cc1`, the figure is 52 µM; as for `Fc1ccccc1-c1nc2scc(-c3ccccc3)n2c1NC1CCCCC1`, 35.4 µM; as for `COc1ccc(-c2nc3scc(-c4ccccc4)n3c2NC(C)(C)C)cc1`, 58 µM.

Another series relates to PC-12. Nature of the series: Cytoprotective activity against rat PC12 cells assessed as protection against H2O2-induced cell death at 1 to 10 uM pre-treated 3 hrs before H2O2 addition and measured 24 hrs post H2O2 challenge by MTT assay. In kind it is functional, cell-based.
Details: not given
Turning to `COc1ccc(-c2csc3nc(-c4ccccc4)c(NC(C)(C)CC(C)(C)C)n23)cc1`, the result was Active.
